{"source": "ChEMBL document CHEMBL3588834", "about": "“Towards bacterial adhesion-based therapeutics and detection methods” (Medchemcomm, 2014)", "key": {"Mus musculus [1]": {"system": "Mus musculus", "test": "Time duration maintaining effective drug urine level in mouse at 10 mg/kg, ip", "assay_type": "ADME, organism-based", "details": "in vivo"}, "[2]": {"test": "Stability in mouse urinary bladder assessed as unchanged drug level at 100 mg/kg, po", "assay_type": "ADME, organism-based", "details": "in vivo"}, "Escherichia coli": {"system": "Escherichia coli", "test": "Antimicrobial activity against uropathogenic Escherichia coli infected in chronic mouse cystitis model assessed as reduction in bacterial levels at 100 mg/kg, po administered as single dose relative to untreated control", "assay_type": "functional"}, "Mus musculus [3]": {"system": "Mus musculus", "test": "Time duration maintaining >10 mM urine level in mouse at 50 mg/kg, po", "assay_type": "ADME, organism-based", "details": "in vivo"}, "[4]": {"test": "Binding affinity to Pseudomonas aeruginosa LecA"}, "[5]": {"test": "Binding affinity to Pseudomonas aeruginosa LecB"}, "[6]": {"test": "Inhibition of Pseudomonas aeruginosa LecA by ELISA method"}, "Streptococcus suis": {"system": "Streptococcus suis", "test": "[…] of Streptococcus suis by hemagglutination inhibition assay", "assay_type": "functional, organism-based"}}}
{"smiles": "CNC(=O)c1cc(C(=O)NC)cc(-c2ccc(O[C@H]3O[C@H](CO)[C@@H](O)[C@H](O)[C@@H]3O)cc2)c1", "values": [{"measurement": "Time", "setting": "Mus musculus [1]", "value": 8, "unit": "h"}, {"measurement": "Stability", "setting": "[2]", "value": "> 95", "unit": "%"}, {"measurement": "fold change (FC)", "setting": "Escherichia coli", "value": 3}]}
{"smiles": "CNC(=O)c1cc(C(=O)NC)cc(-c2ccc(O[C@H]3O[C@H](CO)[C@@H](O)[C@H](O)[C@@H]3O)c(C)c2)c1", "values": [{"measurement": "Time", "setting": "Mus musculus [3]", "value": 6, "unit": "h"}]}
{"smiles": "CC(C)C[C@H](NC(=O)[C@@H]1CCCN1C(=O)[C@H](CCCCN)NC(=O)c1ccc(O[C@@H]2O[C@H](CO)[C@H](O)[C@H](O)[C@H]2O)cc1)C(N)=O", "values": [{"measurement": "Kd", "setting": "[4]", "value": 4.2, "unit": "µM"}]}
{"smiles": "[N-]=[N+]=NCC(=O)Nc1ccc(O[C@@H]2O[C@H](CO)[C@H](O)[C@H](O)[C@H]2O)cc1", "values": [{"measurement": "Kd", "setting": "[4]", "value": 5.8, "unit": "µM"}]}
{"smiles": "OC[C@H]1O[C@@H](Oc2ccc3ccccc3c2)[C@H](O)[C@@H](O)[C@H]1O", "values": [{"measurement": "Kd", "setting": "[4]", "value": 4.2, "unit": "µM"}]}
{"smiles": "COC(=O)c1cn([C@@H]2O[C@H](CO)[C@@H](O[C@@H]3O[C@H](C)[C@@H](O)[C@@H](O)[C@@H]3O)[C@H](O)[C@H]2NC(C)=O)nn1", "values": [{"measurement": "Kd", "setting": "[5]", "value": 0.29, "unit": "µM"}]}
{"smiles": "CO[C@H]1O[C@H](CNS(=O)(=O)c2c(C)cc(C)cc2C)[C@@H](O)[C@H](O)[C@@H]1O", "values": [{"measurement": "Kd", "setting": "[5]", "value": 3.3, "unit": "µM"}]}
{"smiles": "CC(C)(C)c1cc2c(Oc3cn(CC(=O)NCCOCCO[C@@H]4O[C@H](CO)[C@H](O)[C@H](O)[C@H]4O)nn3)c(c1)Cc1cc(C(C)(C)C)cc(c1Oc1cn(CC(=O)NCCOCCO[C@@H]3O[C@H](CO)[C@H](O)[C@H](O)[C@H]3O)nn1)Cc1cc(C(C)(C)C)cc(c1Oc1cn(CC(=O)NCCOCCO[C@@H]3O[C@H](CO)[C@H](O)[C@H](O)[C@H]3O)nn1)Cc1cc(C(C)(C)C)cc(c1Oc1cn(CC(=O)NCCOCCO[C@@H]3O[C@H](CO)[C@H](O)[C@H](O)[C@H]3O)nn1)C2", "values": [{"measurement": "Kd", "setting": "[4]", "value": 0.09, "unit": "µM"}]}
{"smiles": "O=C(Cn1cc(CCC(=O)N[C@H]2[C@@H]3OC[C@H]4O[C@@H](OC[C@H]5O[C@@H](OC[C@H]6O[C@@H](OC[C@@H](O3)[C@@H](O)[C@@H]2O)[C@H](NC(=O)CCc2cn(CC(=O)Nc3ccc(O[C@@H]7O[C@H](CO)[C@H](O)[C@H](O)[C@H]7O)cc3)nn2)[C@@H](O)[C@@H]6O)[C@H](NC(=O)CCc2cn(CC(=O)Nc3ccc(O[C@@H]6O[C@H](CO)[C@H](O)[C@H](O)[C@H]6O)cc3)nn2)[C@@H](O)[C@@H]5O)[C@H](NC(=O)CCc2cn(CC(=O)Nc3ccc(O[C@@H]5O[C@H](CO)[C@@H](O)[C@H](O)[C@H]5O)cc3)nn2)[C@@H](O)[C@@H]4O)nn1)Nc1ccc(O[C@@H]2O[C@H](CO)[C@@H](O)[C@H](O)[C@H]2O)cc1", "values": [{"measurement": "Kd", "setting": "[4]", "value": 0.079, "unit": "µM"}]}
{"smiles": "OC[C@H]1O[C@@H](OCc2cn([C@H]3[C@H](O)[C@@H](O)[C@H](n4cc([C@@H]5O[C@H](CO)[C@@H](n6cc(CO[C@@H]7O[C@H](CO)[C@H](O)[C@H](O)[C@H]7O)nn6)[C@H](O)[C@H]5O)nn4)O[C@@H]3CO)nn2)[C@H](O)[C@@H](O)[C@H]1O", "values": [{"measurement": "IC50", "setting": "[6]", "value": 3.5, "unit": "µM"}]}
{"smiles": "OC[C@H]1O[C@@H](OCc2cn([C@H]3[C@H](O)[C@@H](O)[C@H](c4cn([C@H]5[C@H](O)[C@@H](O)[C@H](n6cc([C@@H]7O[C@H](CO)[C@@H](n8cc([C@@H]9O[C@H](CO)[C@@H](n%10cc(CO[C@@H]%11O[C@H](CO)[C@H](O)[C@H](O)[C@H]%11O)nn%10)[C@H](O)[C@H]9O)nn8)[C@H](O)[C@H]7O)nn6)O[C@@H]5CO)nn4)O[C@@H]3CO)nn2)[C@H](O)[C@@H](O)[C@H]1O", "values": [{"measurement": "IC50", "setting": "[6]", "value": 0.84, "unit": "µM"}]}
{"smiles": "COc1ccc(O[C@@H]2O[C@H](CO)[C@H](O[C@H]3O[C@H](CO)[C@H](O)[C@H](NC(=O)Nc4ccccc4)[C@H]3O)[C@H](O)[C@H]2O)cc1", "values": [{"measurement": "IC50", "setting": "Streptococcus suis", "value": 0.03, "unit": "µM"}]}
{"smiles": "COCO[C@H]1[C@@H](O[C@@H]2[C@H](O)[C@@H](O)[C@H](Oc3ccc(OC)cc3)O[C@@H]2CO)O[C@H](CO)[C@H](O)[C@@H]1O", "values": [{"measurement": "IC50", "setting": "Streptococcus suis", "value": 0.05, "unit": "µM"}]}
{"smiles": "O=C(CCSCC(CSCCC(=O)NCCO[C@@H]1O[C@H](CO)[C@H](O[C@H]2O[C@H](CO)[C@H](O)[C@H](O)[C@H]2O)[C@H](O)[C@H]1O)(CSCCC(=O)NCCO[C@@H]1O[C@H](CO)[C@H](O[C@H]2O[C@H](CO)[C@H](O)[C@H](O)[C@H]2O)[C@H](O)[C@H]1O)CSCCC(=O)NCCO[C@@H]1O[C@H](CO)[C@H](O[C@H]2O[C@H](CO)[C@H](O)[C@H](O)[C@H]2O)[C@H](O)[C@H]1O)NCCO[C@@H]1O[C@H](CO)[C@H](O[C@H]2O[C@H](CO)[C@H](O)[C@H](O)[C@H]2O)[C@H](O)[C@H]1O", "values": [{"measurement": "IC50", "setting": "Streptococcus suis", "value": 0.002, "unit": "µM"}]}
{"smiles": "COC(=O)c1cc(OCCNC(=O)c2cc(OCCNC(=O)COCC(=O)NCCO[C@@H]3O[C@H](CO)[C@H](O[C@H]4O[C@H](CO)[C@H](O)[C@H](O)[C@H]4O)[C@H](O)[C@H]3O)cc(OCCNC(=O)COCC(=O)NCCO[C@@H]3O[C@H](CO)[C@H](O[C@H]4O[C@H](CO)[C@H](O)[C@H](O)[C@H]4O)[C@H](O)[C@H]3O)c2)cc(OCCNC(=O)c2cc(OCCNC(=O)COCC(=O)NCCO[C@@H]3O[C@H](CO)[C@H](O[C@H]4O[C@H](CO)[C@H](O)[C@H](O)[C@H]4O)[C@H](O)[C@H]3O)cc(OCCNC(=O)COCC(=O)NCCO[C@@H]3O[C@H](CO)[C@H](O[C@H]4O[C@H](CO)[C@H](O)[C@H](O)[C@H]4O)[C@H](O)[C@H]3O)c2)c1", "values": [{"measurement": "IC50", "setting": "Streptococcus suis", "value": 0.0003, "unit": "µM"}]}
{"smiles": "COc1ccc(O[C@@H]2O[C@H](CO)[C@H](O[C@H]3O[C@H](CO)[C@H](O)[C@H](O)[C@H]3O)[C@H](O)[C@H]2O)cc1", "values": [{"measurement": "IC50", "setting": "Streptococcus suis", "value": 0.31, "unit": "µM"}]}
{"smiles": "OC[C@H]1O[C@@H](Sc2ccc3ccccc3c2)[C@H](O)[C@@H](O)[C@H]1O", "values": [{"measurement": "Kd", "setting": "[4]", "value": 6.3, "unit": "µM"}]}
{"smiles": "CC(=O)N[C@H]1C(O)O[C@H](CO)[C@@H](O[C@@H]2O[C@@H](C)[C@@H](O)[C@@H](O)[C@@H]2O)[C@@H]1O[C@@H]1O[C@H](CO)[C@H](O)[C@H](O)[C@H]1O", "note": "(stereo partly drawn)", "values": [{"measurement": "Kd", "setting": "[5]", "value": 0.21, "unit": "µM"}]}
{"smiles": "OC[C@H]1O[C@@H](OCc2cn([C@H]3[C@H](O)[C@@H](O)[C@H](c4cn([C@H]5[C@H](O)[C@@H](O)[C@H](n6cc([C@@H]7O[C@H](CO)[C@@H](n8cc(CO[C@@H]9O[C@H](CO)[C@H](O)[C@H](O)[C@H]9O)nn8)[C@H](O)[C@H]7O)nn6)O[C@@H]5CO)nn4)O[C@@H]3CO)nn2)[C@H](O)[C@@H](O)[C@H]1O", "values": [{"measurement": "Kd", "setting": "[4]", "value": 0.028, "unit": "µM"}, {"measurement": "IC50", "setting": "[6]", "value": 0.0027, "unit": "µM"}]}
{"smiles": "O=C[C@H](O)[C@@H](O)[C@@H](O)[C@H](O)CO", "note": "[GALACTOSE]", "values": [{"measurement": "Kd", "setting": "[4]", "value": 87.5, "unit": "µM"}]}
